{
  "source": "patent US20240131173A1",
  "about": "“PROTACS WITH TRANSCRIPTION FACTOR TARGETING MOIETIES” (Beth Israel Deaconess Medical Center, Inc., priority 2021, published 2024)",
  "key": {"HeLa cells [1]": {"tested_on": "HeLa cells", "assay": "Clonal (colony) formation assay", "assay_type": "cell-based, human", "conditions": "HeLa cells", "protocol": "(§1) For cell growth curve assay, HeLa cells (10, 000/well) in 12-well plate were transfected with individual TF-PROTAC, then the cells were trypsined and the cell number were counted at indicated time. For the clonal formation assay, HeLa cells were transfected with individual TF-PROTAC for 12 hours, followed by further plated into 6-well plate (1,000/well). Three weeks later, the cells were fixed in fixation buffer (acetic acid: methanol=1:7) and stained with 0.4% crystal violet in 20% ethanol. Then clonal number were quantified by Image J software. As various changes can be made in the above-described subject matter without departing from the scope and spirit of the present disclsoure, it is intended that all subject matter contained in the above description, or defined in the appended claims, be interpreted as descriptive and illustrative. Many modifications and variations of the present disclosure are possible in light of the above teachings. Accordingly, the present description is intended to embrace all such alternatives, modifications and variances which fall within the scope of the appended claims."}, "p65 [2]": {"molecular_target": "T1, p65 (Homo sapiens, UniProt Q04206)", "assay": "Streptavidin-biotin pulldown / competition assay of NF-κB-ODN with Flag-p65", "assay_type": "binding", "conditions": "excess competitor", "protocol": "To determine whether NF-κB-ODN binds with NF-κB properly, we also synthesized a biotin-modified version of NF-κB-ODN (hereafter termed as Biotin-NF-κB-ODN, FIGS. 3A-3C).\nHEK293T cells that ectopically expressed either Flag-p65 or HAE2F1 were lysed by EBC buffer (50 mM Tris pH 7.5, 120 mM NaCl, 0.5% NP-40) supplemented with protease inhibitors (Pierce) and phosphatase inhibitors (phosphatase inhibitor cocktail set I and II, Calbiochem). The protein concentrations of the lysates were measured using the Bio-Rad protein assay reagent on a Beckman Coulter DU-800 spectrophotometer. The cell lysates (1 mg) were further incubated with biotin-ODN at 4 °C for 3 hours, followed by adding 10 μL of Streptavidin agarose beads (Thermo Fisher) for another 1 hour. The beads were washed 4 times with NETN buffer (100 mM NaCl, 20 mM Tris-Cl, pH 8.0, 0.5 mM EDTA, 0.5% NP-40), boiled in SDS loading buffer and further separated by 10% SDS-PAGE and blotted with individual antibody."}, "[3]": {"molecular_target": "T2, VHL E3 ubiquitin ligase and E2F1 transcription factor (Homo sapiens, UniProt P40337+Q01094+Q14186)", "T2 construct": "made in house; host or cells: E. coli BL21(DE3) for the GST-VHL/Elongin B/C complex; HEK293T lysate for the transfected transcription factor", "T2 sequence (P40337 whole entry)": "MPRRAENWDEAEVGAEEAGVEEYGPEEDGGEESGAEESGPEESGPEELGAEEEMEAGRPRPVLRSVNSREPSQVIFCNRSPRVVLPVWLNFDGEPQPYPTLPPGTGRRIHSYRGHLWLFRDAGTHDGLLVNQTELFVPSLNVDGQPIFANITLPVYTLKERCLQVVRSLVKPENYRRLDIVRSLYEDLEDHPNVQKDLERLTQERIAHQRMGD", "T2 sequence (Q15370 whole entry partner)": "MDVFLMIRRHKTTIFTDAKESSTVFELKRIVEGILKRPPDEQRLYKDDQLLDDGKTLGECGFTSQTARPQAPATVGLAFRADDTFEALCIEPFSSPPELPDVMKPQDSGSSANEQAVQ", "T2 sequence (Q15369 whole entry partner)": "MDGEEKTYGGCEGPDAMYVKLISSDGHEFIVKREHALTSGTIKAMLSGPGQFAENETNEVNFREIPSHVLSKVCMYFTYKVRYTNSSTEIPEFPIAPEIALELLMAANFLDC", "T2 sequence (Q01094 whole entry)": "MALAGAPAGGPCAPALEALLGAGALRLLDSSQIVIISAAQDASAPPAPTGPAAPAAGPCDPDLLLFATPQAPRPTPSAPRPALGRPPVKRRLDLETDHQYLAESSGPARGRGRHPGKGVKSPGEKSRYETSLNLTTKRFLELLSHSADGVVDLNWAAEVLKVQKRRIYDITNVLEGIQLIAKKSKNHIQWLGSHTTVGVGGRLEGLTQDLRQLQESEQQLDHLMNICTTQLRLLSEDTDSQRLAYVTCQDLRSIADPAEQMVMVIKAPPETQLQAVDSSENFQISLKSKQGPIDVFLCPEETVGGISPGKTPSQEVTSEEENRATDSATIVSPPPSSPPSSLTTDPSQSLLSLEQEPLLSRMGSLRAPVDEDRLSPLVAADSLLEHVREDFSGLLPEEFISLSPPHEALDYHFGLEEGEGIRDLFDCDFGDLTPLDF", "T2 sequence (Q14186 whole entry)": "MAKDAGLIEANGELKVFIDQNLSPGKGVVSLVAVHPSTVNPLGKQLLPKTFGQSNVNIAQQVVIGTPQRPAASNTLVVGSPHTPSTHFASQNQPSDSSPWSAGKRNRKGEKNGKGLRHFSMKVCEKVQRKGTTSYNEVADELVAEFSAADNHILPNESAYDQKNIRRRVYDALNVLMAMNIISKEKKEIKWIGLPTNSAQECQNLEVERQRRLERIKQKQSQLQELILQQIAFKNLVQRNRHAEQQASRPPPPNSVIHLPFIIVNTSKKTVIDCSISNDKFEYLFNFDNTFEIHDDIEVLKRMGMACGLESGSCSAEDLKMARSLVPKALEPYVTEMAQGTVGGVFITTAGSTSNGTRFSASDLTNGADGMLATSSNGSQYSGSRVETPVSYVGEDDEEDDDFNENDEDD", "assay": "GST pulldown assay of VHL E3 ligase complex and E2F1 with TF-PROTAC", "assay_type": "binding", "conditions": "in vitro pulldown", "protocol": "(§2) pGEX-GST-VHL/ElonginB construct was kindly gift from Dr. William Kaelin, Jr. at Dana-Farber Cancer Institute, Harvard Medical School. pGEX-GST-Elongin C plasmid was generated by subcloning Elongin C CDS into the BamHI and Xhol sites of pGEX-4T1-GST vector. The GST-VHL/ElonginB/C complex was purified as described 43. Briefly, BL21(DE3) E. coli was cotransfected with pGEX-GST-VHL/ElonginB and pGEX-GSTElonginC plasmid. Protein expression was induced by 100 μM isopropyl beta-D-thiogalactopyranoside (IPTG, Fisher Scientific) at 18° C.overnight. Then, the bacterial culture was centrifuged and sonicated in PBS buffer with protease inhibitor cocktail. Protein lysates were further purified with glutathione-Sepharose beads (GE17-0756-05) and washed with PBS for 5 times.\n(§3) Glutathione-Sepharose beads loaded with GST-VHL E3 ligase complex were incubated at 4° C. with cell lysate derived from HEK293T cells that ectopic transfected with individual transfection factor. After incubation for 3 hours, TF-PROTACs were added into the mixture for another 2 hours, followed by wash with NETN buffer for 3 times. The pulldown products were further separated by 10% SDS-PAGE and blotted for indicated proteins."}, "[4]": {"molecular_target": "T3, VHL E3-PROTAC-p65 ternary complex (Homo sapiens, UniProt P40337+Q04206)", "T3 construct": "made in house; host or cells: E. coli BL21(DE3) for the GST-VHL/Elongin B/C complex; HEK293T lysate for Flag-p65", "T3 sequence (P40337 whole entry)": "as the sequence (P40337 whole entry) above", "T3 sequence (Q15370 whole entry partner)": "as the sequence (Q15370 whole entry partner) above", "T3 sequence (Q15369 whole entry partner)": "as the sequence (Q15369 whole entry partner) above", "T3 sequence (Q04206 whole entry)": "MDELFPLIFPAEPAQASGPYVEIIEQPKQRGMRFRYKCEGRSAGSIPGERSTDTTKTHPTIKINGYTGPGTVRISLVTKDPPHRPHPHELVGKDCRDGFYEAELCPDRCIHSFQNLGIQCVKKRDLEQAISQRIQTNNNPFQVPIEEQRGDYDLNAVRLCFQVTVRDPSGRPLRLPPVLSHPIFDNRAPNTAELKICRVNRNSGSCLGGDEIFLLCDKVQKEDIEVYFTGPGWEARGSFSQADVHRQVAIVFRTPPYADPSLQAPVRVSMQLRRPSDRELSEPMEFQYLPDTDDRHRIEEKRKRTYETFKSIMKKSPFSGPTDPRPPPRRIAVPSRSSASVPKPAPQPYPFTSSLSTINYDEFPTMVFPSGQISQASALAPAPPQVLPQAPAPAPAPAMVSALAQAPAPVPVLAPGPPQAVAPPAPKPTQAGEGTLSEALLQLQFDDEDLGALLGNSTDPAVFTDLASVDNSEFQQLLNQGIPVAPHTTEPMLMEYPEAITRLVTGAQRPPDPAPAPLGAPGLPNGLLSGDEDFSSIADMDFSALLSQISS", "assay": "GST pulldown assay of VHL E3 ligase complex and p65 with TF-PROTAC", "assay_type": "binding", "conditions": "GST-VHL complex from E. coli, HEK293T lysate with Flag-p65, in vitro", "description": "Furthermore, dNF-κB is capable of recruiting VHL E3 ubiquitin ligase to POI, NF-κB. […] However, dNF-κB obtained in current stage could not efficiently promote the degradation of p65 in cells, which prompted further optimization of the length of linker between the VHL ligand and DNA oligomer moieties for achieving efficient destruction of NF-κB in cells.\nas §2, §3"}, "p65 [5]": {"molecular_target": "T4, p65 (Homo sapiens, UniProt P19838+Q04206)", "T4 construct": "endogenous in cells; host or cells: HeLa", "T4 sequence (Q04206 whole entry)": "as above", "T4 sequence (P19838 1-433 limits assumed)": "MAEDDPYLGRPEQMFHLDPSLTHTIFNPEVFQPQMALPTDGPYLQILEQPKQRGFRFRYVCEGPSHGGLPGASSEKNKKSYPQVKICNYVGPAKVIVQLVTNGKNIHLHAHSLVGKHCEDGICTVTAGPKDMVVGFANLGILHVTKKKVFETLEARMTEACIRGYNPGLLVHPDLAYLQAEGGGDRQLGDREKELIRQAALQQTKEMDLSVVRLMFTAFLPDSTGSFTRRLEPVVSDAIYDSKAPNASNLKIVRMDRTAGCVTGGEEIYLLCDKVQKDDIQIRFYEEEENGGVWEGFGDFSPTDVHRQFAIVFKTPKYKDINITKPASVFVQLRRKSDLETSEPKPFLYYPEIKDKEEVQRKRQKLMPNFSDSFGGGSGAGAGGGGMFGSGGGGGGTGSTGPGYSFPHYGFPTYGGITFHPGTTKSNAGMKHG", "assay": "Western blot of p65 in HeLa cells transfected with TF-PROTAC", "assay_type": "cell-based", "conditions": "12 hours, dNF-κB #1-#18 compared", "protocol": "(§4) Human embryonic kidney 293T (HEK293T) and HeLa cells were maintained in Dulbecco's Modified Eagle's Medium (DMEM) containing 10% fetal bovine serum (FBS), 100 Units/mL of penicillin and 100 μg/mL streptomycin. For ectopic expression of transcription factors, Flag-p65 and HA-E2F1 were transfected into HEK293T cells and harvested for lysis 48 hours after transfection. For TF-PROTACs treatment, HeLa cells in 12-well plate were transfected with individual TF-PROTAC for 12 hours, followed by harvest for western blot analysis. […] For depletion of endogenous VHL E3 ligase, two sgRNA for VHL E3 ligase were synthesized and inserted into lenti-CRISPR-V2 construct 40. The sgVHL lentivirus were generated in HEK293T cells as previously described 41-42 for infection of HeLa cells overnight, followed by selection with puromycin for 72 h.\nCells were lysed in EBC buffer supplemented with protease inhibitors cocktail and phosphatase inhibitors, and the protein concentrations were measured as described above. The lysates (40 ug protein) were then resolved by 10% SDS-PAGE at 130 V for 80 min and immunoblotted with indicated antibodies at 4° C. overnight, washed 4 times with Tris-buffered saline with 0.1% Tween-20 (TBST), incubated with secondary antibody for 1 hour at room temperature, and then washed 4 times with TBST buffer. Anti-p65 (#8742, 1:1,000) and E2F1 (#3742, 1:500) antibodies were purchased from Cell Signaling Technologies. Anti-HA antibody (#901513, 1:1,000) was purchased from Biolegend. Anti-Flag (F3165, 1:5,000), anti-vinculin antibody (V-4505, 1:50,000), peroxidase-conjugated anti-mouse secondary antibody (A-4416, 1:3,000) and peroxidase-conjugated anti-rabbit secondary antibody (A-4914, 1:3,000) were purchased from Sigma. All primary antibodies were diluted in 5% bovine serum albumin (BSA) in TBST buffer, and secondary antibodies were diluted in 5% non-fat milk in TBST buffer."}, "p65 [6]": {"molecular_target": "T1, p65", "assay": "In vivo ubiquitination assay of p65 (Ni-NTA pulldown)", "assay_type": "cell-based", "conditions": "HEK293T cells, Flag-p65 24 hours, then dNF-κB 12 hours", "protocol": "Denatured in vivo ubiquitination assays were performed as previously described 41. Briefly, HEK293T cells were firstly transfected with Flag-p65 or HA-E2F1 for 24 hours, followed by additional transfection of individual TF-PROTAC for another 12 hours. Before been harvested, HEK293T cells were treated with 30 μM of MG132 for 4 hours. After having been harvested in denatured buffer A (6 M guanidine-HCI, pH 8.0, 0.1 M Na2HPO4/NaH2PO4, and 10 mM imidazole) and sonication for 10 seconds, cell lysis was incubation with Ni-nitrilotriacetic acid (NTA) matrices under rotation for 3 hours at room temperature. The pulldown products were washed sequentially twice in buffer A, twice in buffer A/TI mixture (buffer A, buffer TI=1:3, v/v), and once in buffer TI (25 mM tris-HCl, pH 6.8, and 20 mM imidazole). The ubiquitinated proteins were finally separated by 7% SDS-PAGE and blotted with individual antibody."}, "p65 [7]": {"molecular_target": "T1, p65", "assay": "Western blot of p65 in HeLa cells transfected with TF-PROTAC", "assay_type": "cell-based", "parameters": "endogenous in cells; host or cells: HeLa", "conditions": "10 uM MG132", "protocol": "as §4\nCells were lysed in EBC buffer supplemented with protease inhibitors cocktail and phosphatase inhibitors, and the protein concentrations were measured as described above. The lysates (40 ug protein) were then resolved by 10% SDS-PAGE at 130 V for 80 min and immunoblotted with indicated antibodies at 4° C. overnight, washed 4 times with Tris-buffered saline with 0.1% Tween-20 (TBST), incubated with secondary antibody for 1 hour at room temperature, and then washed 4 times with TBST buffer. […]"}, "HeLa cells [8]": {"tested_on": "HeLa cells", "assay": "Cell growth curve assay (cell number)", "assay_type": "cell-based, human", "conditions": "10 ug/mL", "protocol": "as §1"}},
  "note": "“Also recorded” adds a separate entry of the source.",
  "data": [
    {"substance": "5′-TGGGGACTTTCCAGTTTCTGGAAAGTCCCCA-3′ (chemistry not given here) [NF-κB-ODN, reference compound]", "values": [
      {"measurement": "tumorigenesis ability (colony formation)", "setting": "HeLa cells [1]", "result": "not"},
      {"measurement": "competition with Biotin-NF-κB-ODN for binding to p65", "setting": "p65 [2]", "result": "competed with Biotin-NF-κB-ODN for the binding with p65"}
    ]},
    {"substance": "N3-NF-κB-ODN: azide modification version of NF-κB-ODN, azide group on the 5′ end through the 5′ amino modifier C6 (TGGGGACTTTCCAGTTTCTGGAAAGTCCCCA; chemistry not fully specified) [Compound N3-NF-κB-ODN]", "values": [
      {"measurement": "competition with Biotin-NF-κB-ODN for binding to p65", "setting": "p65 [2]", "result": "competed with Biotin-NF-κB-ODN for the binding with p65"}
    ]},
    {"substance": "dE2F #15 (chain 1 CTAGATTTCCCGCG; chain 2 CTAGCGCGGGAAAT; DNA, backbone and methylation of C not given here; further chemistry not fully specified)", "values": [
      {"measurement": "binding between VHL E3 ubiquitin ligase and E2F1 recruited by PROTAC", "setting": "[3]", "result": "recruited the binding between the VHL E3 ubiquitin ligase and E2F1 transcription factor in vitro"}
    ]},
    {"substance": "dNF-κB #1 (TGGGGACTTTCCAGTTTCTGGAAAGTCCCCA; DNA, backbone and methylation of C not given here; further chemistry not fully specified)", "values": [
      {"measurement": "VHL E3 ligase-p65 binding (ternary complex) induced by PROTAC", "setting": "[4]", "result": "induced the VHL E3-PROTAC-p65 ternary complex formation"},
      {"measurement": "competition with Biotin-NF-κB-ODN for binding to p65", "setting": "p65 [2]", "result": "competed with Biotin NF-κB for binding to RelA/p65"}
    ]},
    {"substance": "dNF-κB #4 (TGGGGACTTTCCAGTTTCTGGAAAGTCCCCA; VHL ligand conjugate via C4 linker, further chemistry not given here)", "values": [
      {"measurement": "VHL E3 ligase-p65 binding (ternary complex) induced by PROTAC", "setting": "[4]", "result": "recruited the binding between the VHL E3 ubiquitin ligase and p65 in vitro"},
      {"measurement": "p65 signal / degradation efficiency in western blot", "setting": "p65 [5]", "result": "lowest p65 signal"},
      {"measurement": "ubiquitination of p65 in cells", "setting": "p65 [6]", "result": "lead to the ubiquitination of p65 in cells"}
    ]},
    {"substance": "dNF-κB #7 (TGGGGACTTTCCAGTTTCTGGAAAGTCCCCA; VHL ligand conjugate via C7 linker, further chemistry not given here)", "values": [
      {"measurement": "VHL E3 ligase-p65 binding (ternary complex) induced by PROTAC", "setting": "[4]", "result": "recruited the binding between the VHL E3 ubiquitin ligase and p65 in vitro"},
      {"measurement": "p65 signal / degradation efficiency in western blot", "setting": "p65 [5]", "result": "lowest p65 signal"},
      {"measurement": "ubiquitination of p65 in cells", "setting": "p65 [6]", "result": "lead to the ubiquitination of p65 in cells"}
    ]},
    {"substance": "dNF-κB #15 (TGGGGACTTTCCAGTTTCTGGAAAGTCCCCA; decoy; VHL ligand conjugate via PEG2 linker, further chemistry not given here)", "values": [
      {"measurement": "VHL E3 ligase-p65 binding (ternary complex) induced by PROTAC", "setting": "[4]", "result": "recruited the binding between the VHL E3 ubiquitin ligase and p65 in vitro"},
      {"measurement": "degradation of endogenous p65 under proteasome inhibitor MG132", "setting": "p65 [7]", "result": "blocked the degradation of endogenous p65"},
      {"measurement": "tumorigenesis ability (colony formation)", "setting": "HeLa cells [1]", "result": "inhibited"},
      {"measurement": "p65 signal / degradation efficiency in western blot", "setting": "p65 [5]", "result": "lowest p65 signal; also recorded: best degradation efficiency"},
      {"measurement": "ubiquitination of p65 in cells", "setting": "p65 [6]", "result": "lead to the ubiquitination of p65 in cells"},
      {"measurement": "proliferation of HeLa cells (cell number)", "setting": "HeLa cells [8]", "result": "repressed the proliferation of HeLa cells"}
    ]},
    {"substance": "dNF-κB #18 (TGGGGACTTTCCAGTTTCTGGAAAGTCCCCA; decoy; VHL ligand conjugate via PEG5 linker, further chemistry not given here)", "values": [
      {"measurement": "VHL E3 ligase-p65 binding (ternary complex) induced by PROTAC", "setting": "[4]", "result": "recruited the binding between the VHL E3 ubiquitin ligase and p65 in vitro"},
      {"measurement": "p65 signal / degradation efficiency in western blot", "setting": "p65 [5]", "result": "lowest p65 signal"},
      {"measurement": "ubiquitination of p65 in cells", "setting": "p65 [6]", "result": "lead to the ubiquitination of p65 in cells"}
    ]}
  ]
}
